Four molecules from patent US8846570B2, “Herbicidal compositions comprising 4-amino-3-chloro-5-fluoro-6-(4-chloro-2-fluoro-3-methoxyphenyl)pyridine-2-carboxylic acid or a derivative thereof and microtubule inhibiting herbicides” (Dow AgroSciences LLC, priority 2012, dated 2014) can be followed below.

Holding throughout (assay type): in vivo
For experiment [1], the system named is Ipomoea hederacea Jacq. (IPOHE). Briefly: Postemergence foliar-applied, direct seeded rice, greenhouse: visual weed control. The following applies: post-emergence, read-out: Visual Weed Control (%) Obs. The protocol:
(§1) Seeds or nutlets of the desired test plant species were planted in a soil matrix prepared by mixing a loam or sandy loam soil (e.g., 28.6 percent silt, 18.8 percent clay, and 52.6 percent sand, with a pH of about 5.8 and an organic matter content of about 1.8 percent) and calcareous grit in an 80 to 20 ratio. The soil matrix was contained in plastic pots with a volume of 1 quart and a surface area of 83.6 cm^2. […] The plants were grown for 8-22 days in a greenhouse with an approximate 14 h photoperiod which was maintained at about 29° C. during the day and 26° C. during the night. Nutrients (Peters Excel® 15-5-15 5-Ca 2-Mg and iron chelate) were applied in the irrigation solution as needed and water was added on a regular basis. Supplemental lighting was provided with overhead metal halide 1000-Watt lamps as necessary. The plants were employed for testing when they reached the first through fourth true leaf stage.
(§2) Forms of compound A were applied on an acid equivalent basis.
(§3) For treatments comprised of formulated compounds, measured amounts of compounds were placed individually in 25 mL glass vials and diluted in a volume of 1.25% (v/v) Agri-Dex® crop oil concentrated to obtain 12× stock solutions. […] Application solutions were prepared by adding an appropriate amount of each stock solution (e.g., 1 mL) and diluted to the appropriate final concentrations with the addition of 10 mL of an aqueous mixture of 1.25% (v/v) crop oil concentrate so that the final spray solutions contained 1.25+/−0.05% (v/v) crop oil concentrate.
(§4) As required, additional water and/or 97:3 v/v acetone/DMSO was added to individual application solutions so that the final acetone and DMSO concentrations of the application solutions being compared were 8.1% and 0.25%, respectively.
(§5) All stock solutions and applications solutions were visually inspected for compound compatibility prior to application. Spray solutions were applied to the plant material with an overhead Mandel track sprayer equipped with a 8002E nozzles calibrated to deliver 187 L/ha over an application area of 0.503 m^2 at a spray height of 18 to 20 inches (46 to 50 cm) above average plant canopy height. Control plants were sprayed in the same manner with the solvent blank.
(§6) The treated plants and control plants were placed in a greenhouse as described above and watered by sub-irrigation to prevent wash-off of the test compounds. After approximately 3 weeks, the condition of the test plants as compared with that of the untreated plants was determined visually and scored on a scale of 0 to 100 percent where 0 corresponds to no injury or growth inhibition and 100 corresponds to complete kill.
(§7) Colby's equation was used to determine the herbicidal effects expected from the mixtures (Colby, S. R. 1967. Calculation of the synergistic and antagonistic response of herbicide combinations. Weeds 15:20-22.).
(§8) The following equation was used to calculate the expected activity of mixtures containing two active ingredients, A and B: Expected=A+B−(A×B/100)

Experiment [2] relates to Echinochloa crusgalli (L.) Beauv. (ECHCG). The experiment is described as above. As to the method: as §1, §2, §3, §4, §5, §6, §7, §8
Experiment [3] deals with Cyperus rotundus L. (CYPRO). Briefly: In-water applied, transplanted paddy rice, greenhouse: visual weed control. The protocol: Weed seeds or nutlets of the desired test plant species were planted in puddled soil (mud) prepared by mixing a shredded, non-sterilized mineral soil (50.5 percent silt, 25.5 percent clay, and 24 percent sand, with a pH of about 7.6 and an organic matter content of about 2.9 percent) and water at a 1:1 volumetric ratio. The prepared mud was dispensed in 365 mL aliquots into 16-ounce (oz.) non-perforated plastic pots with a surface area of 86.59 square centimeters (cm^2) leaving a headspace of 3 centimeters (cm) in each pot. Mud was allowed to dry overnight prior to planting or transplanting. Rice seeds were planted in Sun Gro MetroMix® 306 planting mixture, which typically has a pH of 6.0 to 6.8 and an organic matter content of about 30 percent, in plastic plug trays. Seedlings at the second or third leaf stage of growth were transplanted into 860 mL of mud contained in 32-oz. non-perforated plastic pots with a surface area of 86.59 cm^2 4 days prior to herbicide application. The paddy was created by filling the headspace of the pots with 2.5 to 3 cm of water. […] Nutrients were added as Osmocote® (19:6:12, N:P:K+minor nutrients) at 2 g per 16.-oz. pot and 4 g per 32-oz. pot. Water was added on a regular basis to maintain the paddy flood, and supplemental lighting was provided with overhead metal halide 1000-Watt lamps as necessary. The plants were employed for testing when they reached the first through fourth true leaf stage.
as §2
For formulated compounds, a measured amount was placed in an individual 100 or 200 mL glass vial and was dissolved in a volume of 1.25% (v/v) Agri-Dex® crop oil concentrate to obtain application solutions.
For technical grade compounds, a weighed amount was placed in an individual 100 to 200 mL glass vial and was dissolved in a volume of acetone to obtain concentrated stock solutions. […] The concentrated stock solutions obtained were diluted with an equivalent volume of an aqueous mixture containing 2.5% (v/v) crop oil concentrate so that the final application solutions contained 1.25% (v/v) crop oil concentrate.
Applications were made by injecting, with a pipetter, appropriate amounts of the application solutions into the aqueous layer of the paddy. Control plants were treated in the same manner with the solvent blank. Applications were made so that all treated plant material received the same concentrations of acetone and crop oil concentrate.
The treated plants and control plants were placed in a greenhouse as described above and water was added as needed to maintain a paddy flood. After approximately 3 weeks the condition of the test plants as compared with that of the untreated plants was determined visually and scored on a scale of 0 to 100 percent where 0 corresponds to no injury or growth inhibition and 100 corresponds to complete kill.
as §7, §8

Read-outs that look alike come from different tables or passages of the source.

Take `COc1c(Cl)ccc(-c2nc(C(=O)O)c(Cl)c(N)c2F)c1F` [Compound A Acid, 4-amino-3-chloro-6-(4-chloro-2-fluoro-3-methoxyphenyl)-5-fluoropyridine-2-carboxylic acid]: the pest or weed control at 4.38 g/ha in experiment [1] (456 h, 19 DAA, 4.38 g ae/ha) was found to be 0%. In addition, the pest or weed control at 8.75 g/ha in experiment [1] (456 h, 19 DAA, 8.75 g ae/ha) is 10%. For the same molecule, the pest or weed control at 35 g/ha in experiment [1] (504 h, 21 DAA, 35 g ae/ha) was found to be 45%. In addition, the pest or weed control at 8 g/ha in experiment [1] (528 h, 22 DAA, 8 g ae/ha) stood at 25%. Besides, in experiment [1] (528 h, 22 DAA, 16 g ae/ha), the pest or weed control at 16 g/ha worked out at 35%. Besides, the pest or weed control at 32 g/ha in experiment [1] (528 h, 22 DAA, 32 g ae/ha) is 40%. Also, the “Visual Weed Control (%) Obs” value in experiment [2] (19 DAA, 4.38 g ae/ha) is reported as 60%; in experiment [3] (20 DAA, 10.6 g ae/ha) it was 10%; in experiment [3] (20 DAA, 21.2 g ae/ha), 20%.
With `COc1c(Cl)ccc(-c2nc(C(=O)OCc3ccccc3)c(Cl)c(N)c2F)c1F` [Compound A Benzyl Ester, benzyl ester of 4-amino-3-chloro-5-fluoro-6-(4-chloro-2-fluoro-3-methoxy-phenyl)pyridine-2-carboxylic acid], the pest or weed control at 4.38 g/ha in experiment [1] (456 h) worked out at 0%; in experiment [1] (504 h) it was 10%. In addition, the pest or weed control at 8.75 g/ha in experiment [1] (456 h) turned out to be 0%; in experiment [1] (480 h), 10%; in experiment [1] (504 h) it was 10%. Further, the pest or weed control at 8 g/ha in experiment [1] (480 h) came out at 20%; in experiment [1] (528 h), 10%. For the same molecule, the results for the pest or weed control at 16 g/ha in experiment [1] (480 h) and in experiment [1] (528 h) were 40% and 10%, respectively. For the same molecule, the pest or weed control at 17.5 g/ha in experiment [1] (480 h) and in experiment [1] (504 h) was 25% in each case. The pest or weed control at 32 g/ha in experiment [1] (528 h) worked out at 35%. The “Visual Weed Control (%) Obs” value worked out at 55% in experiment [2] (19 DAA, 4.38 g ae/ha); 85% in experiment [2] (19 DAA, 8.75 g ae/ha); 40% in experiment [2] (20 DAA, 4.38 g ae/ha); 70% in experiment [2] (20 DAA, 8.75 g ae/ha); 50% in experiment [3] (20 DAA, 4.38 g ae/ha); 0% in experiment [3] (20 DAA, 8.75 g ae/ha). For the same molecule, the “Visual Weed Control (%) Obs” value in experiment [3] (20 DAA, 17.5 g ae/ha) is reported as 90%; in experiment [3] (21 DAA, 8.75 g ae/ha) it was 0%; in experiment [3] (21 DAA, 17.5 g ae/ha), 0%.
In the case of `CSC(=O)c1c(C(F)F)nc(C(F)(F)F)c(C(=O)SC)c1CC(C)C` [Dithiopyr, S,S′-dimethyl-2-(difluoromethyl)-4-(2-methylpropyl)-6-(trifluoromethyl)-3,5-pyridinedicarbothioate], the pest or weed control at 35 g/ha in experiment [1] (504 h, 21 DAA, 35 g ai/ha) amounted to 10%.
In the case of `CCC(CC)Nc1c([N+](=O)[O-])cc(C)c(C)c1[N+](=O)[O-]` [Pendimethalin, N-(1-ethylpropyl)-3,4-dimethyl-2,6-dinitrobenzenamine, reference compound], the pest or weed control at 140 g/ha in experiment [1] (456 h, 19 DAA, 140 g ai/ha) turned out to be 0%. The pest or weed control at 280 g/ha in experiment [1] (456 h, 19 DAA, 280 g ai/ha) was found to be 0%. Moreover, the pest or weed control at 560 g/ha in experiment [1] (456 h, 19 DAA, 560 g ai/ha) was found to be 0%. The pest or weed control at 1120 g/ha in experiment [1] (504 h, 21 DAA, 1120 g ai/ha) amounted to 13%. Moreover, the “Visual Weed Control (%) Obs” value in experiment [2] (19 DAA, 140 g ai/ha) turned out to be 0%; in experiment [2] (19 DAA, 280 g ai/ha) it was 0%; in experiment [2] (19 DAA, 560 g ai/ha), 10%; in experiment [2] (21 DAA, 1120 g ai/ha), 18%; in experiment [3] (21 DAA, 280 g ai/ha) it was 0%; in experiment [3] (21 DAA, 560 g ai/ha), 0%.
